Laboratory results: patent US20230000773A1, “NOVEL HEADGROUP LIPID COMPOUNDS AND COMPOSITIONS FOR INTRACELLULAR DELIVERY OF THERAPEUTIC AGENTS” (ModernaTX, Inc., priority 2019, published 2023)

Tests used:
hEPO mRNA = assay: hEPO expression in CD1-mice after intravenous administration of nanoparticles; format: in vivo; conditions: 6 h after intravenous administration, mRNA dose 0.5 mg/kg, N:P 3.4, compound:DSPC:cholesterol:PEG 2 50:10:38:2
Method: The expression of hEPO mRNA in CD1-mice was measured 6 h after intravenous administration of nanoparticles comprising a compound of the disclosure, DSPC, cholesterol, and PEG 2 in a ratio of 50:10:38:2. […] Each composition was dosed to 8 animals at an mRNA dose of 0.5 mg/kg.

serum protein ApoE = assay: ApoE binding affinity of nanoparticles (bead binding, flow cytometry)
Method: The ApoE binding affinity, i.e., the affinity of binding between nanoparticles comprising compounds of the disclosure and the serum protein ApoE, was determined by binding the nanoparticles to beads, then incubating them with known quantities of […]. The quantity of protein bound to the nanoparticle was then determined by flow cytometry.

[1] = Heparin-sepharose binding of nanoparticles
[2] = Surface hydrophobicity by Generalized Polarization by Laurdan (GPL); format: physicochemical; conditions: normalized Generalized Polarization by Laurdan; higher N-GP = less polar surface
Summary of the method: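 LNPs contained ionizable lipid:DSPC:cholesterol:PEG lipid at 50:10:38:2 mol %. Laurdan was post-inserted into the particle surface, and its fluorescence spectrum gave normalized generalized polarization (N-GP); higher N-GP means a less polar surface.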

mRNA = mRNA integrity in nanoparticles by RP-IP HPLC (UV 260 nm); format: physicochemical
Method: Integrity of mRNA comprised in nanoparticles of the disclosure, i.e., the percentages of intact mRNA, mRNA adducts, and mRNA hydrolysis products, […] (Reverse-Phase Ion-Pairing HPLC) using UV detection at 260 nm. Total purity and impurities are calculated as percent peak area.

[3] = Encapsulation efficiency (% EE), ribogreen; format: physicochemical; conditions: nanoparticles, compound:DSPC:cholesterol:PEG 2 50:10:38:2 mol %
Summary of the method: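 Encapsulated RNA fraction determined by fluorescence of free RNA before and after LNP disruption with detergent or solvent. LNPs contained ionizable lipid:DSPC:cholesterol:PEG lipid at 50:10:38:2 mol %.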

[4] = Encapsulation efficiency (% EE), ribostar; format: physicochemical; conditions: nanoparticles, compound:DSPC:cholesterol:PEG 2 50:10:38:2 mol %
Text: The efficiency of encapsulation of a therapeutic and/or prophylactic describes the amount of therapeutic and/or prophylactic that is encapsulated or otherwise associated with a lipid nanoparticle (e.g., an empty LNP or a loaded LNP) after preparation, relative to the initial amount provided. The encapsulation efficiency is desirably high (e.g., close to 100%). The encapsulation efficiency may be measured, for example, by comparing the amount of therapeutic and/or prophylactic in a solution containing the lipid nanoparticle (e.g., an empty LNP or a loaded LNP) before and after breaking up the lipid nanoparticle (e.g., an empty LNP or a loaded LNP) with one or more organic solvents or detergents. Fluorescence may be used to measure the amount of free therapeutic and/or prophylactic (e.g., RNA) in a solution. For the lipid nanoparticles (e.g., empty LNPs or loaded LNPs) described herein, the encapsulation efficiency of a therapeutic and/or prophylactic may be at least 50%, for example 50%, 55%, 60%, 65%, 70%, 75%, 80%, 85%, 90%, 91%, 92%, 93%, 94%, 95%, 96%, 97%, 98%, 99%, or 100%. In some embodiments, the encapsulation efficiency may be at least 80%. In certain embodiments, the encapsulation efficiency may be at least 90%. In some embodiments, the encapsulation efficiency of the therapeutic and/or prophylactic agent is between 80% and 100%.
Nanoparticle compositions including a therapeutic and/or prophylactic can be optimized according to the selection of a compound according to Formula (I), (I-1), (A), (A-1), (A-1a), or (A-1b), the selection of additional lipids, the amount of each lipid in the lipid component, and the wt:wt ratio of the lipid component to the therapeutic and/or prophylactic. Nanoparticle compositions including DSPC as a phospholipid, cholesterol as a structural lipid, PEG 2 as a PEG lipid, and a compound according to Formula (I), (I-1), (A), (A-1), (A-1a), or (A-1b) were prepared. The ratios of the lipids were 50:10:38:2 mol % for the lipid according to Formula (I), (I-1), (A), (A-1), (A-1a), or (A-1b):DSPC:cholesterol:PEG 2. Tables 2a, 2b, and 3-5 summarize the characteristics of the formulations.
Table 4 summarizes the surface hydrophobicity of nanoparticles comprising compounds of the disclosure as determined by Generalized Polarization by Laurdan (GPL). Laurdan, a fluorescent aminonaphthalene ketone lipid, was post-inserted into the nanoparticle surface and the fluorescence spectrum of Laurdan was collected to determine the normalized Generalized Polarization (N-GP). Higher N-GP indicates a less polar surface.

[5] = Size and polydispersity index of nanoparticles comprising compounds of the disclosure; format: physicochemical; conditions: compound:DSPC:cholesterol:PEG 2 50:10:38:2 mol %
Summary of the method: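 LNPs contained test lipid:DSPC:cholesterol:PEG 2 at 50:10:38:2 mol %. Size and polydispersity index were measured by dynamic light scattering.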

[6] = Apparent LNP pKa by 2-(p-toluidino)-6-napthalene sulfonic acid (TNS) assay; format: physicochemical; conditions: pH at half of maximum fluorescence
[7] = mRNA integrity after 2 weeks at 25° C., percent peak area
[8] = mRNA integrity at t = 0, percent peak area

Row | Median Fluorescence Intensity, PE (serum protein ApoE) | Relative % Area Bound by LNP [1] | Average N-GP [2] | Adduct (mRNA; [7]) | Hydrolysis Product (mRNA; [7]) | Intact (mRNA; [7]) | Adduct (mRNA; [8]) | Hydrolysis Product (mRNA; [8]) | Intact (mRNA; [8]) | % EE (ribogreen) [3] | % EE (ribostar) [4] | PDI [5] | Size (nm) [5] | LogIC50 (pKa) [6] | SMILES | Avg. [hEPO] mIU/mL (hEPO mRNA)
1 | 41093 | 5.65% | 1.055 | 8.5% | 77.2% | 14.3% | 6.0% | 51.8% | 42.2% | 41.5% | 20.5% | 0.192 | 90.8 nm | 6.69 | CCCCCCCCC(CC)OC(=O)CCCCCCCN(CCCCCCCC(=O)OC(CCCCCCCC)CCCCCCCC)CCCNC(=O)C1(C)CC1 (stereo not drawn) [Compound 60, Heptadecan-9-yl 8-((3-(1-methylcyclopropane-1-carboxamido)propyl)(8-oxo-8-(undecan-3-yloxy)octyl)amino)octanoate] | 7.34E+05 mIU/mL
2 | 146715 | 6.69% | 0.890 | 26.3% | 39.0% | 34.7% | 10.1% | 32.8% | 57.1% | 84.1% | 48.5% | 0.123 | 71.7 nm | 6.67 | CCCCCCCCC(CC)OC(=O)CCCCCCCN(CCCCCCCC(=O)OC(CCCCCCCC)CCCCCCCC)CCCNS(=O)(=O)C1CC1 (stereo not drawn) [Compound 67, Heptadecan-9-yl 8-((3-(cyclopropanesulfonamido)propyl)(8-oxo-8-(undecan-3-yloxy)octyl)amino)octanoate] | 1.43E+06 mIU/mL
3 | 3133 | 2.90% | 1.001 | 7.9% | 51.4% | 40.8% | 3.8% | 36.4% | 59.8% | 75.4% | 41.6% | 0.211 | 108.2 nm | 6.87 | CCCCCCCCC(CC)OC(=O)CCCCCCCN(CCCCCCCC(=O)OC(CCCCCCCC)CCCCCCCC)CCCNc1ncccc1NC (stereo not drawn) [Compound 34, Heptadecan-9-yl 8-((3-((3-(methylamino)pyridin-2-yl)amino)propyl)(8-oxo-8-(undecan-3-yloxy)octyl)amino)octanoate] | 8.06E+05 mIU/mL
